# Laboratory results taken from patent US7714019B2 (priority 2002, dated 2010).
# Test system: HIV-1 single-round infectious reporter virus
# Assay: microbe, parasite or virus in culture
# Type: cell-based
# Conditions: Human immunodeficiency virus 1, HeLa-CD4/CCR5, 72 h, read-out: EC50 Group from Table 1
# Description: • Virus production-Human embryonic Kidney cell line, 293, propagated in Dulbecco's Modified Eagle Medium (Life Technologies, Gaithersburg, Md.) containing 10% fetal Bovine serum (FBS, Sigma, St. Louis, Mo.). • Virus infection-Human epithelial cell line, HeLa, expressing the HIV-1 receptors CD4 and CCR5 was propagated in Dulbecco's Modified Eagle Medium (Life Technologies, Gaithersburg, Md.) containing 10% fetal Bovine serum (FBS, Sigma, St. Louis, Mo.) and supplemented with 0.2 mg/mL Geneticin (Life Technologies, Gaithersburg, Md.) and 0.4 mg/mL Zeocin (Invitrogen, Carlsbad, Calif.). Virus—Single-round infectious reporter virus was produced by co-transfecting human embryonic Kidney 293 cells with an HIV-1 envelope DNA expression vector and a proviral cDNA containing an envelope deletion mutation and the luciferase reporter gene inserted in place of HIV-1 nef sequences (Chen et al, Ref. 41). Transfections were performed using lipofectAMINE PLUS reagent as described by the manufacturer (Life Technologies, Gaithersburg, Md.). Experiment • 1. Compound was added to HeLa CD4 CCR5 cells plated in 96 well plates at a cell density of 1×10^3 cells per well in 100 μl Dulbecco's Modified Eagle Medium containing 10% fetal Bovine serum at a concentration of <20 μM. • 2. 100 μl of single-round infectious reporter virus in Dulbecco's Modified Eagle Medium was then added to the plated cells and compound at an approximate multiplicity of infection (MOI) of 0.01, resulting in a final volume of 200 μl per well and a final compound concentration of <10 μM. • 3. Samples were harvested 72 h after infection. • 4. Viral infection was monitored by measuring luciferase expression from viral DNA in the infected cells using a luciferase reporter gene assay kit (Roche Molecular Biochemicals, Indianapolis, Ind.). Infected cell supernatants were removed and 50 μl of Dulbecco's Modified Eagle Medium (without phenol red) and 50 μl of luciferase assay reagent reconstituted as described by the manufacturer (Roche Molecular Biochemicals, Indianapolis, Ind.) was added per well. Luciferase activity was then quantified by measuring luminescence using a Wallac microbeta scintillation counter. • 5. […] An EC50 provides a method for comparing the antiviral potency of the compounds of this invention. The effective concentration for fifty percent inhibition (EC50) was calculated with the Microsoft Excel Xlfit curve fitting software. For each compound, curves were generated from percent inhibition calculated at 10 different concentrations by using a four parameter logistic model (model 205). Table 1 is the key for the data in Table 2. Results
row,SMILES,EC50 [µM]
1,"O=C(NCC1CCN(C(=O)c2ccccc2)C1)C(=O)c1c[nH]c2cccc(F)c12 (centres unmarked) [Example 1, N-(1-Benzoyl-pyrrolidin-3-ylmethyl)-2-(4-fluoro-1H-indol-3-yl)-2-oxo-acetamide]",< 1
2,"CC(C)(C)OC(=O)NCC1CCN(C(=O)C(=O)c2c[nH]c3cccc(F)c23)C1 (centres unmarked) [Example 2, {1-[2-(4-Fluoro-1H-indol-3-yl)-2-oxo-acetyl]-pyrrolidin-3-ylmethyl}-carbamic acid tert-butyl ester]",> 5
3,"O=C(NCC1CCN(C(=O)C(=O)c2c[nH]c3cccc(F)c23)C1)c1ccccc1 (centres unmarked) [Example 3, N-{1-[2-(4-Fluoro-1H-indol-3-yl)-2-oxo-acetyl]-pyrrolidin-3-ylmethyl}-benzamide]",< 1
4,"O=C(NCC1CCN(C(=O)C(=O)c2cn(C(=O)c3ccccc3)c3cccc(F)c23)C1)c1ccccc1 (centres unmarked) [Example 4, N-{1-[2-(1-Benzoyl-4-fluoro-1H-indol-3-yl)-2-oxo-acetyl]-pyrrolidin-3-ylmethyl}-benzamide]",< 1
5,"O=Cc1ccc(F)c2c(C(=O)C(=O)NCC3CCN(C(=O)c4ccccc4)C3)c[nH]c12 (centres unmarked) [Example 5, N-(1-Benzoyl-pyrrolidin-3-ylmethyl)-2-(4-fluoro-7-formyl-1H-indol-3-yl)-2-oxo-acetamide]",1 to 5
6,"O=C(NCC1CCN(C(=O)c2ccccc2)C1)C(=O)c1c[nH]c2ncccc12 (centres unmarked) [Example 6, N-(1-Benzoyl-pyrrolidin-3-ylmethyl)-2-oxo-2-(1H-pyrrolo[2,3-b]pyridin-3-yl)-acetamide]",> 5
7,O=C(NCC1CCN(C(=O)c2ccccc2)C1)C(=O)c1c[nH]c2c(C(=O)O)ccc(F)c12 (centres unmarked) [Example 7],1 to 5
8,CNC(=O)c1ccc(F)c2c(C(=O)C(=O)NCC3CCN(C(=O)c4ccccc4)C3)c[nH]c12 (centres unmarked) [Example 8],< 1
9,"O=C(NC[C@@H]1CCN(C(=O)C(=O)c2c[nH]c3c(Br)ccc(F)c23)C1)c1ccccc1 [Example 9, N-{1-[2-(7-Bromo-4-fluoro-1H-indol-3-yl)-2-oxo-acetyl]-pyrrolidin-3-ylmethyl}-benzamide]",< 1
10,"O=C(NC[C@H]1CCN(C(=O)C(=O)c2c[nH]c3c(Br)ccc(F)c23)C1)c1ccccc1 [Example 10, N-{1-[2-(7-Bromo-4-fluoro-1H-indol-3-yl)-2-oxo-acetyl]-pyrrolidin-3-ylmethyl}-benzamide]",< 1
11,"O=C(NC[C@H]1CCN(C(=O)C(=O)c2c[nH]c3c(-c4cc[nH]n4)ccc(F)c23)C1)c1ccccc1 [Example 11, N-(1-{2-[4-Fluoro-7-(1H-pyrazol-3-yl)-1H-indol-3-yl]-2-oxo-acetyl}-pyrrolidin-3-ylmethyl)-benzamide]",< 1
12,"O=C(NC[C@@H]1CCN(C(=O)C(=O)c2c[nH]c3c(-c4cc[nH]n4)ccc(F)c23)C1)c1ccccc1 [Example 12, N-(1-{2-[4-Fluoro-7-(1H-pyrazol-3-yl)-1H-indol-3-yl]-2-oxo-acetyl}-pyrrolidin-3-ylmethyl)-benzamide]",< 1
13,O=C(NCC1CCCN1C(=O)C(=O)c1c[nH]c2ccccc12)c1ccccc1 (centres unmarked) [Example 13],< 1
14,"CN(C(=O)c1c[nH]c2ccccc12)C1CCN(C(=O)c2ccccc2)C1 (centres unmarked) [Example 14, 1H-Indole-3-carboxylic acid (1-benzoyl-pyrrolidin-3-yl)-methyl-amide]",> 5
